# Measurements published in patent publication US8497240B2 (priority 2006, dated 2013).
# Read-outs that look alike come from different tables or passages of the source.
# What was measured:
# [1] = target: human GIP receptor; assay: biochemical; type: binding; conditions: read-out: GIP RBA
# [2] = type: in vivo, NIH/Swiss mice
# Protocol: (§1) In FIG. 3A, bars represent mean±sd, n=6-10. […] Gavage (1.5 g/kg) was given at t=0, Sample was taken at t=30 min. […] In FIG. 3B, points represent mean±sem, n=8-15.
# Peptide was injected IP at t=−5 minutes into 4-hour fasted NIH/Swiss female mice. […] In FIG. 17 points represent mean+/−sem. […] Samples were taken at t=60, t=120 and t=180.
# [3] = 30, 60 90 μg, men with IDDM; cited from earlier work
# [4] = conscious rats, cited from earlier work
# [5] = tested on: pancreatic CCK receptor; conditions: cited from earlier work
# [6] = Body composition in DIO mice; type: in vivo, C57BL/6J mice
# Description: During the study, the mice can continue to eat their high-fat diet. Water can be provided ad libitum throughout the study.
# DIO mice can be implanted with subcutaneous (SC) intrascapular osmotic pumps to deliver either vehicle (50% dimethylsulfoxide (DMSO) in water) or a compound of the invention. […] Body weights and food intake can be measured over regular intervals throughout the study periods. Respiratory quotient (RQ, defined as CO2 production÷O2 consumption) and metabolic rate can be determined using whole-animal indirect calorimetry (Oxymax, Columbus Instruments, Columbus, Ohio). The mice can be euthanized by isoflurane overdose, and an index of adiposity (bilateral epididymal fat pad weight) measured. Moreover, prior to determination of epididymal weight, body composition (lean mass, fat mass) for each mouse can be analyzed using a Dual Energy X-ray Absorptiometry (DEXA) instrument per manufacturer's instructions (Lunar Piximus, GE Imaging System).
# [7] = type: in vivo, NIH/Swiss mice; remark: listed apart in the source
# Protocol: as §1
# Points represent mean±sem.
# [8] = type: in vivo, db/db mice; conditions: for glucose lowering in a diabetic mouse model (FIG. 4): db/db mice, IP
# Protocol: Peptide was injected IP at t=0 immediately following baseline sample into 2-hour fasted db/db mice.
# [9] = Intravenous glucose tolerance test (IVGTT), i.v. infusion; type: in vivo, rat; conditions: for insulin levels prior to the glucose challenge / insulinotropic response to an intravenous glucose challenge (IVGTT assay): 100 pmol/kg/min infusion, rats
# Protocol: In the typical IVGTT assays the test sample was administered by IV infusion. The IV infusion of sample was initiated at t=−30 min and continued through t=90. IV glucose was given at t=0. To determine a duration of action using the IVGTT assay, the sample was injected SC as a single injection at one time point indicated (e.g., t=−240, −120, −60 or −30) prior to administration of glucose. IV glucose was given at t=0.
# As described, fed, isoflurane anesthetized HSD male rats were intubated and cannulated via femoral artery and vein and allowed to stabilize for 1 hour. […] At t=0, an i.v. bolus of 5.7 mmol/kg D-glucose was administered over 2 minutes. Samples for glucose measurement and insulin concentrations were taken at various time points before and after (0 to 90 minutes) glucose infusion.
# [10] = IVGTT duration of action assay (single SC injection before glucose); type: in vivo, rat
# Protocol: To determine a duration of action using the IVGTT assay, the sample was injected SC as a single injection at one time point indicated (e.g., t=−240, −120, −60 or −30) prior to administration of glucose. IV glucose was given at t=0.
# [11] = target: cardiomyocyte Gs-coupled receptors; assay: cAMP production in neonatal cardiomyocytes (HTRF, Gs-coupled receptor activation); type: cell-based, rat; conditions: neonatal rat cardiomyocytes
# Protocol: Activation of cardiomyocyte Gs- and Gi-coupled receptors was determined as a measure of cAMP production.
# Neonatal cardiomyocytes were isolated using a commercially available system. […] Sprague Dawley neonatal rats (1-2 days old) were decapitated and the beating heart dissected out into digestion buffer (Cellutron D1 buffer) to dissociate cells. […] The resuspended cells incubated in buffer (Cellutron D3 buffer) for sufficient time to allow optimal dispersion and minimize the need for pipetting to break up clumps. Cells released from the first 2 digestions were discarded since a significant portion of these is red blood cells. Resuspended cells were filtered and allowed to pre-plate for 1 hour on plastic in an incubator in NS media (Cellutron, N.J.) in order to remove fibroblasts. After 1 hour of pre-plating, floating cells are removed and the flask rinsed with NS media. The floating cells and the cells in the rinse media were combined and counted. Residual red blood cells, which are smaller that the cardiac myocytes, were not counted.
# At Day 1, the NS media was replaced with fresh NS media.
# Dose response was determined.
# For Gs assays the positive control was 10 uM forskolin and negative control was buffer. For Gi assays the positive control was buffer and the negative control was 10 uM forskolin.
# [12] = Telemetry of circulatory effects in conscious rats; conditions: 80 nmol/kg intravenous
# [13] = Body weight gain in diet-induced-obesity (DIO) mice; type: in vivo, C57BL/6 mice
# [14] = Gastric emptying (FIG. 23A); conditions: in vivo
# [15] = Intracellular calcium levels (FIG. 23B)
# [16] = Glucose in rats (summary table); type: in vivo, rat
# [17] = 30 minutes, read-out: EC50 of cAMP production (this experiment, FIGS. 18A/18B)
# [18] = read-out: EC50 of cardiomyocyte Gs-coupled receptor activation (three independent experiments)
compound,measurement,setting,value
CC[C@H](C)[C@H](NC(=O)[C@H](CO)NC(=O)[C@H](Cc1ccc(O)cc1)NC(=O)[C@H](CC(=O)O)NC(=O)[C@H](CO)NC(=O)[C@@H](NC(=O)[C@H](Cc1ccccc1)NC(=O)[C@@H](NC(=O)CNC(=O)[C@H](CCC(=O)O)NC(=O)[C@@H](C)NC(=O)[C@@H](N)Cc1ccc(O)cc1)[C@@H](C)O)[C@@H](C)CC)C(=O)N[C@@H](C)C(=O)N[C@@H](CCSC)C(=O)N[C@@H](CC(=O)O)C(=O)N[C@@H](CCCCN)C(=O)N[C@H](C(=O)N[C@@H](Cc1c[nH]cn1)C(=O)N[C@@H](CCC(N)=O)C(=O)N[C@@H](CCC(N)=O)C(=O)N[C@@H](CC(=O)O)C(=O)N[C@@H](Cc1ccccc1)C(=O)N[C@H](C(=O)N[C@@H](CC(N)=O)C(=O)N[C@@H](Cc1c[nH]c2ccccc12)C(=O)N[C@@H](CC(C)C)C(=O)N[C@@H](CC(C)C)C(=O)N[C@@H](C)C(=O)N[C@@H](CCC(N)=O)C(=O)N[C@@H](CCCCN)C(=O)N[C@@H](CO)C(=O)NCC(=O)N[C@@H](C)C(=O)N1CCC[C@H]1C(=O)N1CCC[C@H]1C(=O)N1CCC[C@H]1C(=O)N[C@@H](CO)C(N)=O)C(C)C)[C@@H](C)CC [0601GIP4192],IC50,[1],7 nM
same,OGTT/GL (%),[2]; 350 nmol/kg,−16%
"CC[C@H](C)[C@H](NC(=O)[C@@H]1CCCN1C(=O)CNC(=O)[C@H](Cc1ccccc1)NC(=O)[C@H](CC(N)=O)NC(=O)[C@H](CC(N)=O)NC(=O)[C@H](CO)NC(=O)[C@H](CO)NC(=O)[C@H](Cc1c[nH]cn1)NC(=O)[C@@H](NC(=O)[C@H](CC(C)C)NC(=O)[C@H](Cc1ccccc1)NC(=O)[C@H](CC(N)=O)NC(=O)[C@H](C)NC(=O)[C@H](CC(C)C)NC(=O)[C@H](CCCNC(=N)N)NC(=O)[C@H](CCC(N)=O)NC(=O)[C@@H](NC(=O)[C@H](C)NC(=O)[C@@H]1CSSC[C@H](NC(=O)[C@@H](N)CCCCN)C(=O)N[C@@H](CC(N)=O)C(=O)N[C@@H]([C@@H](C)O)C(=O)N[C@@H](C)C(=O)N[C@@H]([C@@H](C)O)C(=O)N1)[C@@H](C)O)C(C)C)C(=O)N[C@@H](CC(C)C)C(=O)N1CCC[C@H]1C(=O)N1CCC[C@H]1C(=O)N[C@H](C(=O)N[C@@H](CC(N)=O)C(=O)N[C@H](C(=O)NCC(=O)N[C@@H](CO)C(=O)N[C@@H](CC(N)=O)C(=O)N[C@H](C(=O)N[C@@H](Cc1ccc(O)cc1)C(N)=O)[C@@H](C)O)C(C)C)[C@@H](C)O [pramlintide, ^25,28,29Pro-h-amylin]",half-emptying time of the stomach,[3],approximately doubled the half-emptying time of the stomach
DY(SO3)MGWMDF [CCK-8],EC(50) nmol/kg for inhibition of gastric emptying,[4]; subcutaneous 5 min before gavage,12.8 nmol/kg
same,potency of binding displacement relative to unsulfated CCK-8 or CCK-4,[5],1000-5000
Y(D-Ala)EGTFISDYSIAMDKIHQQDFVNWLLAQKPSSGAPPPS-NH2 [Compound 0601GIP3794],body composition,"[6]; mouse, in vivo",slight decrease in percentage body fat with an increase in body protein without a concomitant reduction in body weight
same,OGTT/GL (%),[2]; 10 nmol/kg,−17% 10 nmol/kg
same,OGTT/GL (%),[2]; 350 nmol/kg,"−21% 350 nmol/kg,"
same,OGTT (compared to 0601GIP3794),"[2]; mouse, in vivo",=794
same,OGTT ED50,"[2]; mouse, in vivo","ED50 ~2 nmol/kg,"
same,OGTT response,"[2]; mouse, in vivo",−21%
same,Basal Glucose Lowering at 80 nmol/Kg,"[7]; 80 nmol/kg, AUC180","−9%, AUC180"
same,Basal Glucose Lowering at Peptide Conc. of 80 nmol/kg,"[7]; 80 nmol/kg, AUC240","−7 to −20%,"
same,glucose lowering profile over 240 min (FIGS. 8-10),"[7]; 2-hour fasted NIH/Swiss mice, IP","gradually increasing activity that peaks at t=120 min, and is more sustained than native GIP or its D-Ala2 version"
same,glucose lowering in normal mice (FIGS. 3A and 3B),"[7]; NIH/Swiss mice, IP",significantly more efficacious than full length GIP
same,"GL (glucose lowering, compared to 0601GIP3794)","[7]; mouse, in vivo",=794
same,basal glucose lowering (% maximal decrease),"[7]; mouse, in vivo",−20%
same,Basal Glucose Lowering in db/db,"[8]; 80 nmol/kg, t = 120","−33%, 80 nmol/kg,"
same,glucose lowering in a diabetic mouse model (FIG. 4),[8],pronounced and long-acting effect in lowering glucose
same,insulin levels prior to the glucose challenge,[9],significant rise in insulin levels
same,insulinotropic response to an intravenous glucose challenge (IVGTT assay),[9],significant enhancement of the insulinotropic response
same,IVGTT > = < Compared to 0601GIP3794,"[9]; rat, in vivo",=
same,Standard IVGTT assay IV infusion (insulin AUC 0-30 min),"[9]; rat, in vivo, iv",249
same,Duration of action in assay (insulin AUC 0-30 min),[10]; SC inj T = −30 min,198
same,Duration of action in assay (insulin AUC 0-30 min),[10]; SC inj T = −60 min,159
same,Duration of action in assay (insulin AUC 0-30 min),[10]; SC inj T = −120 min,204
same,Duration of action in assay (insulin AUC 0-30 min),[10]; SC inj T = −240 min,79
same,"DOA (duration of action, compared to 0601GIP3794)",[10]; time not stated,=794
same,EC50,[11]; [17],11.7 nM
same,EC50,[11]; [18],29.8 nM
same,food intake,"mouse, in vivo, ip",did not acutely inhibit food intake
same,dP/dt,[12],increased dP/dt similarly
same,effect on heart rate,[12],transient relative to GIP
same,effect on mean arterial pressure,[12],decreased mean arterial pressure
same,systolic and diastolic pressures,[12],sustained lowering of systolic and diastolic pressures
"YAEGTFISDYSIAMDKIHQQDFVNWLLAQKGKKNDWKHNITQ-OH [GIP, reference compound]",BWt (mDIO),[13]; DIO mice,not active
same,weight loss / body weight change in diet-induced-obese mice,"[13]; mouse, in vivo",did not cause weight loss
same,Body Comp (mDIO),[6]; DIO mice,No effect on lean mass
same,OGTT,"[2]; mice, effect on glucose",decreases
same,OGTT response,"[2]; mouse, in vivo",−10%
same,Glucose mice,[7]; mice,weak
same,basal glucose lowering (% maximal decrease),"[7]; mouse, in vivo",0%
same,glucose lowering in a diabetic mouse model (FIG. 4),[8],modest and wanes over time
same,insulin levels prior to the glucose challenge,[9],significant rise in insulin levels
same,insulinotropic response to an intravenous glucose challenge (IVGTT assay),[9],significant enhancement of the insulinotropic response
same,EC50,[11]; [17],9.1 nM
same,EC50,[11]; [18],15.6 nM
same,Gastric Emptying,[14],not active
same,iCa,[15],not active
same,Glucose rats,[16],not active
same,food intake,"mice, peptide injected IP",not active
same,food intake,"mouse, in vivo, ip",did not acutely inhibit food intake
same,inhibition of gastric emptying at doses of 100 μg,[4]; 100 μg,either weakly active or inactive
same,dP/dt,[12],increased dP/dt similarly
same,effect on mean arterial pressure,[12],had no effect
